# From patent publication US6867186B2, “Cell-permeable protein inhibitors of calpain” (New England Medical Center Hospital, priority 1997, dated 2005)
# Like-named read-outs stand apart in the source and are kept apart here. Peptide text beside a SMILES is read from it. * marks the point of attachment. Cbz = O=C(OCc1ccccc1)*; CHN2 = [N-]=[N+]=C*
# T1: purified µ-calpain (porcine erythrocyte) (porcine, UniProt P35750 1-714; P04574 1-266, limits assumed)
# T1 sequence (looked up) 1: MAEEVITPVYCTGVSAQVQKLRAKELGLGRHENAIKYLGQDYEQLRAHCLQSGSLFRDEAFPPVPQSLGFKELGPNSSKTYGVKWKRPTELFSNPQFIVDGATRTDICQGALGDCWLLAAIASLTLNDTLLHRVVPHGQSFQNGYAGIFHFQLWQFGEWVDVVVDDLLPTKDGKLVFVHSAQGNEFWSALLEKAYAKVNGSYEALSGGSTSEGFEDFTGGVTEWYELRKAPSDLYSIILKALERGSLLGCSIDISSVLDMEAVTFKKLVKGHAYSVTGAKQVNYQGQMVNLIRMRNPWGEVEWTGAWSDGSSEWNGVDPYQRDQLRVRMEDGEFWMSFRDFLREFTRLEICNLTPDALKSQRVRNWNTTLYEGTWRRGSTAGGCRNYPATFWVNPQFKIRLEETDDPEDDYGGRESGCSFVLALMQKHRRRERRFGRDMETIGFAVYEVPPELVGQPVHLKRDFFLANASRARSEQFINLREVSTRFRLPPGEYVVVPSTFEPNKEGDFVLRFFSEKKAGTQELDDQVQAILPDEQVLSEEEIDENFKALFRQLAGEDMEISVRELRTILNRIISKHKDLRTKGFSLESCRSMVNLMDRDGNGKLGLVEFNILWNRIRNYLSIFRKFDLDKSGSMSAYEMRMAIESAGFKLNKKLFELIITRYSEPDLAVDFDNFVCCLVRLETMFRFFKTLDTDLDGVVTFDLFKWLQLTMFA
# T1 sequence (looked up) 2: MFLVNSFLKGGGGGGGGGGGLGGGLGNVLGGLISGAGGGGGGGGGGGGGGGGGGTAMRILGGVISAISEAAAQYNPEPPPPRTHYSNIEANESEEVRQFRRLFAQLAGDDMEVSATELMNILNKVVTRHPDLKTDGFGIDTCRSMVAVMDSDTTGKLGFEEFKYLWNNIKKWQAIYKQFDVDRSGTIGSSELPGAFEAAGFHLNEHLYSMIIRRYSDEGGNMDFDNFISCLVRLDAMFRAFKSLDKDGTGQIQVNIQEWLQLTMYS
# Assays:
# [1] = test system: HIV-1; conditions: 24 h
# Method: (§1) U1 is a human promonocytic cell line that is chronically infected with HIV-1 and that constitutively expresses low levels of HIV-1. […] In the present experiment, 1×10^6 cells/ml were treated with various dosages of calpastat and incubated for one hour at 37° C. After incubation, various concentrations of Tpg were added to the calpastat-treated cells and aliquoted into a 24-well plate. To observe the stimulation of HIV-1 activity by Tpg, equivalent numbers of cells were treated with Tpg alone. The cells were then incubated at 37° C. for up to four days, and supernatants from the cell culture were collected each day to measure HIV-1 activity. The viability of cells treated with both Tpg and calpastat were determined each day by Trypan-blue exclusion test. The HIV-1 activity in the collected supernatants was determined by measuring the HIV-1 p24 core antigen protein by ELISA (Dupont Medical Products, Boston, Mass.) according to the manufacturer's instructions.
# In another series of experiments, U1 cells, which are latently infected with HIV-1 provirus, were plated at 10^6 cells/well in 1 ml of medium and treated with varying concentrations of either calpastat (FIG. 7E) or calpeptin (benzyloxycarbonyl-leucyl-norleucinal) (FIG. 7F) for 45 minutes before addition of thapsigargin (4 nM final concentration). […] After 48 hours of stimulation, HIV-1 p24 antigen levels were determined in 200 μl of tissue culture supernatant, using a p24 ELISA (DuPont). All assays were performed on triplicate cultures.
# [2] = test system: U1 cells; experiment: U1 cell viability (Trypan-blue exclusion); format: cell-based, human; conditions: for U1 cell viability: 96 hr
# Method: as §1
# In another series of experiments, U1 cells, which are latently infected with HIV-1 provirus, were plated at 10^6 cells/well in 1 ml of medium and treated with varying concentrations of either calpastat (FIG. 7E) or calpeptin (benzyloxycarbonyl-leucyl-norleucinal) (FIG. 7F) for 45 minutes before addition of thapsigargin (4 nM final concentration). The viability of U1 monocytes was 90% at 48 hours of thapsigargin (4 nM) treatment, in the presence or absence of calpain inhibitors. After 48 hours of stimulation, HIV-1 p24 antigen levels were determined in 200 μl of tissue culture supernatant, using a p24 ELISA (DuPont). All assays were performed on triplicate cultures. Mean values and standard deviations are shown for each concentration of inhibitor (FIGS. 7E-7F).
# [3] = test system: gel filtered platelets; experiment: Thrombin-induced platelet aggregation (aggregometer); format: cell-based, human; conditions: for effect on platelet aggregation: thrombin or SFLLR induced; for IC50: initial rate during first 15 seconds, NI=no inhibition, peptidyl inhibitors 10 min pre-incubation, read-out: IC50, initial rate of thrombin-induced platelet aggregation
# Method: In one series of experiments, platelets were purified from […] on a SEPHAROSE 2B column in PIPES buffered saline containing glucose, pre-incubated with 45 μM calpastat or S-TIPPEY-ala for 30 minutes at 37° C., and placed in a cuvette in a BIODATA aggregometer. The aggregometer measures turbidity of the solution by nephlometry (light scatter). Aggregation was induced with thrombin (0.1 to 1 unit/ml) or the thrombin receptor agonist peptide SFLLR (SEQ ID NO:5). […] In contrast, S-TIPPEY-ala had no activity. A version of S-TIPPEYIN lacking the signal sequence similarly had no activity.
# In another series of experiments, gel filtered platelets were obtained and tested as follows. Blood from healthy, aspirin-free volunteers was collected by venipuncture into 4% sodium citrate (9:1 v/v, final concentration 0.4%) and centrifuged at 200×g for 20 minutes to obtain platelet rich plasma (PRP). Following incubation with apyrase (4 units/ml for 5 minutes at room temperature), platelets were purified from PRP by gel-filtration at room temperature using a Sepharose 2B column equilibrated in PIPES buffer (25 mM PIPES pH 6.8, 140 mM NaCl, 4 mM KCl, and 0.1% glucose) (Hsu-Lin, et al., J. Biol. Chem. 259:9121-9126, 1984). Final gel filtered platelet concentrations were about 1.5×10^8 cells/ml.
# Gel filtered platelets (250 μl aliquots at 1.6×10^8/ml) were incubated with the indicated concentration of calpastat or mutant calpastat-ala for either 20 or 30 minutes at 37° C. in the absence of calcium and stirring. To test peptidyl calpain inhibitors, platelets were preincubated with the indicated concentration of calpeptin, MDL, E64d, DMSO (vehicle control) or NH4Cl (cathepsin control) for 10 minutes at 37° C. Following incubation, platelets were recalcified (CaCl2, 2 mM) and stimulated with 0.05-1.0 unit/ml thrombin, while being stirred (1400 rpm) at 37° C. The sensitivity of platelet preparations to thrombin decreased over the course of a given experiment. The thrombin concentration used was to elicit robust aggregation and varied between 0.05 and 1.0 U/ml. Aggregation was measured using a Bio-Data lumi-aggregometer. Percent inhibition of aggregation was measured at 4 minutes following the onset of aggregation. The initial rate of aggregation during the first 15 seconds for treated vs. untreated samples was used to calculate the IC50 for each inhibitor.
# [4] = test system: platelets; experiment: cells
# Method: To determine whether S-TIPPEYIN could inhibit α-granule secretion in platelets, surface expression of P-selectin, which indicates α-granule secretion, was induced with the thrombin peptide SFLLR (SEQ ID NO:5) and analyzed by flow cytometry using an antibody against P-selectin. Blood from healthy volunteers was collected into sodium citrate (4% w/v) and centrifuged at 200×g for 10 minutes to prepare platelet-rich plasma (PRP), from which platelets were subsequently purified by gel filtration using a SEPHAROSE 2B column in PIPES buffer. Twenty μl of platelets (approximately 2×10^8 platelets/ml) were aliquoted into eppendorf tubes and one μl of S-TIPPEYIN, TIPPEYIN (lacking the signal peptide sequence), or S-TIPPEY-ala was added to achieve final concentrations of 6.25, 12.5, 25, 50, or 100 μM. The platelets were then incubated for 2 hours at 37° C. and subsequently exposed to either 1 μl PBS (unstimulated) or 1 μl of SFLLR (SEQ ID NO:5; stimulated) at the indicated concentration. After 30 seconds, a 7.5 μl aliquot was transferred to an eppendorf tube containing non-immune serum having antibodies that were conjugated to phycoerythrin. Following a 20 minute incubation at room temperature, the mixture was diluted with 1 ml of 2% paraformaldehyde and incubated at 4° C. for two hours. Antibody binding to platelet surface P-selectin was quantified using a FACSCAN flow cytometer (Becton Dickerson, San Jose, Calif.). Results were reported as the geometric mean of the relative fluorescence.
# Platelets were pre-incubated with increasing concentrations of calpeptin, MDL, E64d, or DMSO (vehicle control) for ten minutes prior to stimulation with SFLLR.
# [5] = test system: platelets; experiment: cells; format: cell-based; conditions: for IC50 / effect on platelet spreading: spreading on glass; for IC50: NI=no inhibition, read-out: IC50, inhibition of platelet spreading
# Method: Platelet activation on surfaces can be inhibited by […] or […] fusion proteins. […] The cellular area of spread platelets was determined by computer assisted image analysis using NIH Image 1.61. […] Percent inhibition of spreading was calculated from the increase in mean cell area for untreated and treated samples vs. unspread DMSO controls.
# [6] = test system: calpain; experiment: Ionophore-dependent calpain degradation of ABP and talin in platelets; format: cell-based; conditions: 5, 8, or 10 minutes A23187
# Method: To investigate whether calpastat inhibits calpain activity in platelets, the ionophore-dependent proteolysis of actin binding protein (ABP; about 280 kDa) and talin (about 240 kDa), both of which are substrates of both μ- and m-calpains, was examined as follows.
# Platelets were pre-incubated with ZLLYCHN2, DMSO (solvent for ZLLY-CHN2), calpastat, or HEPES buffer (buffer for calpastat), and then treated with or without ionophore A23187 for 5, 8, or 10 minutes. The platelets were then gel-purified as described above. Whole cell lysates were prepared and fractionated by SDS polyacrylamide gel electrophoresis.
# [7] = target: T1, purified µ-calpain (porcine erythrocyte); experiment: cell-based or functional assay
molecule,measurement,setting,value
C/C=C(/C)C(=O)O[C@H]1C(C)=C2[C@H]([C@@H]1OC(=O)CCCCCCC)[C@@](C)(OC(C)=O)C[C@H](OC(=O)CCC)[C@@]1(O)[C@H]2OC(=O)[C@@]1(C)O [thapsigargin],induction of virus (HIV-1),[1]; 1 nM Tpg,1.37 fold
same,induction of virus (HIV-1),[1]; 5 nM Tpg,20 fold
same,U1 cell viability,[2]; 4.0 nM Tpg,about 50%
same,viability of U1 monocytes,"[2]; 4 nM thapsigargin, 48 hours, presence or absence of calpain inhibitors",90%
same,U1 cell viability,[2]; 50 nM Tpg,~5%
EKLGERDDTIPPEYRELLEKKTGV [Calpastatin 24 mer],effect on platelet aggregation,[3],no measurable effect
same,effect on platelet aggregation,[3]; listed as S-TIPPEYIN lacking the signal sequence,no activity
same,effect on SFLLR-induced P-selectin surface expression,"[4]; pre-incubation, SFLLR stimulation",little effect
"CCCC[C@@H](C=O)NC(=O)[C@H](CC(C)C)NC(=O)OCc1ccccc1 [Calpeptin, benzyloxycarbonyl-leucyl-norleucinal]",IC50,"[3]; Homo sapiens, Platelet",150 µM
same,IC50,[5]; Platelet,200 µM
same,platelets round and unspread,[5]; pre-treated at 200 μM,30%
same,IC50,"[4]; Homo sapiens, Platelet, read-out: IC50 / half-maximal inhibition of P-selectin surface expression",200 to 300 µM
CC(C)[C@H](NC(=O)OCc1ccccc1)C(=O)N[C@H](C=O)Cc1ccccc1 [MDL] (Cbz-Val-Phe-aldehyde),IC50,[3],240 µM
same,platelets round and unspread,[5]; pre-treated at 200 μM,30%
same,IC50,[5],200 µM
"CC(C)C[C@H](NC(=O)OCc1ccccc1)C(=O)N[C@@H](CC(C)C)C(=O)N[C@@H](Cc1ccc(O)cc1)C(=O)C=[N+]=[N-] [ZLLYCHN2, reference compound] (Cbz-Leu-Leu-Tyr-CHN2)",A23187-dependent calpain degradation of ABP and talin in platelets,[6],inhibited
same,effect on platelet spreading,[5],no inhibitory activity
CCOC(=O)[C@H]1O[C@@H]1C(=O)N[C@@H](CC(C)C)C(=O)NCCC(C)C [E64d],IC50,[3],340 µM
same,platelets round and unspread,[5]; pretreated at 250 μM,About 20%
same,IC50,[5],> 250 µM
Cl.N [NH4Cl],effect on platelet aggregation,[3],does not affect platelet aggregation
same,effect on platelet spreading,[5],no effect
H-AAVALLPAVLLALLAPEKLGERDDTIPPEYRELLEKKTGV-OH [calpastat],"inhibition of calpain cleavage of [14C]-methylcasein in a cell-free system (2.7 µM µ-calpain), IC50",[7],0.5 µM
same,"inhibition of µ-calpain cleavage of suc-LLVY-AMC (fluorometric calpain assay, 70 nM enzyme), IC50",[7],0.05 µM
